The values below are quoted from earlier work in patent publication US20250241957A1, “INTRA-ERYTHROCYTE DEXAMETHASONE FOR TREATMENT OF ATAXIA-[…]” (priority 2024, published 2025).

This data set relates to participants with A-T. As to conditions: betamethasone used for two years.

Consider `C[C@H]1C[C@H]2[C@@H]3CCC4=CC(=O)C=C[C@]4(C)[C@@]3(F)[C@@H](O)C[C@]2(C)[C@@]1(O)C(=O)CO` [betamethasone], for which the Adrenal suppression entry was “documented in all participants”.
